From paper PMC5218480 (PLoS ONE, 2017)

Test system: MV-4-11 cells
Test: Gene expression microarray analysis (Affymetrix PrimeView) and GSEA
Assay type: cell-based, human
Design: RFU PODN (11730768_x_at) / Fold change /veh PODN (11730768_x_at) / RFU LINC00158 (11744669_a_at) / Fold change /veh LINC00158 (11744669_a_at) / RFU DUSP10 (11751237_a_at) / Fold change /veh DUSP10 (11751237_a_at) / RFU ID3 (11757404_x_at) / Fold change /veh ID3 (11757404_x_at) / RFU PLEKHG5 (11737974_s_at) / Fold change /veh PLEKHG5 (11737974_s_at) / RFU LRRC4B (11730491_at) / Fold change /veh LRRC4B (11730491_at) / RFU GIMAP4 (11747438_a_at) / Fold change /veh GIMAP4 (11747438_a_at) / RFU KRT8 (11758183_x_at) / Fold change /veh KRT8 (11758183_x_at) / RFU CNN1 (11734310_a_at) / Fold change /veh CNN1 (11734310_a_at) / RFU VPS37D (11726825_at) / Fold change /veh VPS37D (11726825_at) / RFU C10orf10 (11716522_x_at) / Fold change /veh C10orf10 (11716522_x_at) / RFU KIR2DL2 /// KIR2DL4 /// KIR2DL5A /// KIR2DL5B /// KIR2DS1 /// KIR2DS2 /// KIR2DS3 /// KIR2DS4 /// KIR3DL3 /// KIR3DL3 /// KIR3DS1 (11738374_at) / Fold change /veh KIR2DL2 /// KIR2DL4 /// KIR2DL5A /// KIR2DL5B /// KIR2DS1 /// KIR2DS2 /// KIR2DS3 /// KIR2DS4 /// KIR3DL3 /// KIR3DL3 /// KIR3DS1 (11738374_at) / RFU C1QL1 (11718748_at) / Fold change /veh C1QL1 (11718748_at) / RFU TMPRSS4 (11747572_a_at) / Fold change /veh TMPRSS4 (11747572_a_at) / RFU HAMP (11756126_x_at) / Fold change /veh HAMP (11756126_x_at) / RFU RNFT2 (11725882_a_at) / Fold change /veh RNFT2 (11725882_a_at) / RFU NR4A2 (11747474_a_at) / Fold change /veh NR4A2 (11747474_a_at) / RFU ABCC12 (11746883_a_at) / Fold change /veh ABCC12 (11746883_a_at) / RFU TMEM136 (11760407_x_at) / Fold change /veh TMEM136 (11760407_x_at) / RFU CLDN22 /// WWC2 (11732394_at) / Fold change /veh CLDN22 /// WWC2 (11732394_at) / RFU HLA-DPB1 (11760878_x_at) / Fold change /veh HLA-DPB1 (11760878_x_at) / RFU SPINT1 (11716480_a_at) / Fold change /veh SPINT1 (11716480_a_at) / RFU GAP43 (11754022_s_at) / Fold change /veh GAP43 (11754022_s_at) / RFU A4GNT (11735810_at) / Fold change /veh A4GNT (11735810_at) / RFU PRB3 (11715151_x_at) / Fold change /veh PRB3 (11715151_x_at) / RFU TUBB4B (11761932_at) / Fold change /veh TUBB4B (11761932_at) / RFU CAPN14 (11732068_a_at) / Fold change /veh CAPN14 (11732068_a_at) / RFU TMCC2 (11721928_a_at) / Fold change /veh TMCC2 (11721928_a_at) / RFU IRGQ (11745062_a_at) / Fold change /veh IRGQ (11745062_a_at) / RFU FAM174B (11720279_a_at) / Fold change /veh FAM174B (11720279_a_at) / RFU TMPRSS4 (11748680_a_at) / Fold change /veh TMPRSS4 (11748680_a_at) / RFU FAM212B (11763350_a_at) / Fold change /veh FAM212B (11763350_a_at) / RFU PLEKHG5 (11743358_a_at) / Fold change /veh PLEKHG5 (11743358_a_at) / RFU ZSCAN30 (11745921_a_at) / Fold change /veh ZSCAN30 (11745921_a_at) / RFU CMKLR1 (11741424_a_at) / Fold change /veh CMKLR1 (11741424_a_at) / RFU LOC101060620 /// MAPK8IP1 (11723275_at) / Fold change /veh LOC101060620 /// MAPK8IP1 (11723275_at) / RFU SPTSSB (11747773_x_at) / Fold change /veh SPTSSB (11747773_x_at) / RFU PRSS12 (11739890_at) / Fold change /veh PRSS12 (11739890_at) / RFU BIN1 (11741810_x_at) / Fold change /veh BIN1 (11741810_x_at) / RFU WNT11 (11732464_a_at) / Fold change /veh WNT11 (11732464_a_at) / RFU C10orf10 (11716521_a_at) / Fold change /veh C10orf10 (11716521_a_at) / RFU C5orf56 (11738089_at) / Fold change /veh C5orf56 (11738089_at) / RFU CYB561 (11721691_x_at) / Fold change /veh CYB561 (11721691_x_at) / RFU ANKRD19P (11752326_a_at) / Fold change /veh ANKRD19P (11752326_a_at) / RFU OR2T12 /// OR2T33 /// OR2T8 (11738714_s_at) / Fold change /veh OR2T12 /// OR2T33 /// OR2T8 (11738714_s_at) / RFU VCAN (11748164_a_at) / Fold change /veh VCAN (11748164_a_at) / RFU JSRP1 (11732532_at) / Fold change /veh JSRP1 (11732532_at) / RFU KRTAP10-11 (11738290_x_at) / Fold change /veh KRTAP10-11 (11738290_x_at) / RFU MYO3A (11730013_a_at) / Fold change /veh MYO3A (11730013_a_at) / RFU EBF3 (11725865_a_at) / Fold change /veh EBF3 (11725865_a_at) / RFU CAMK2N1 (11719241_x_at) / Fold change /veh CAMK2N1 (11719241_x_at) / RFU C5orf56 (11738088_a_at) / Fold change /veh C5orf56 (11738088_a_at) / RFU OLFML3 (11715873_a_at) / Fold change /veh OLFML3 (11715873_a_at) / RFU LOC100653217 /// NTM (11731650_a_at) / Fold change /veh LOC100653217 /// NTM (11731650_a_at) / RFU MAPK11 (11762145_a_at) / Fold change /veh MAPK11 (11762145_a_at) / RFU FIZ1 (11724087_x_at) / Fold change /veh FIZ1 (11724087_x_at) / RFU OASL (11726364_x_at) / Fold change /veh OASL (11726364_x_at) / RFU SOX15 (11748057_x_at) / Fold change /veh SOX15 (11748057_x_at) / RFU CD79A (11719716_a_at) / Fold change /veh CD79A (11719716_a_at) / RFU HIST1H1D (11736915_at) / Fold change /veh HIST1H1D (11736915_at) / RFU CASKIN2 (11723855_a_at) / Fold change /veh CASKIN2 (11723855_a_at) / RFU LOC730098 (11760151_x_at) / Fold change /veh LOC730098 (11760151_x_at) / RFU OR4N2 (11742367_at) / Fold change /veh OR4N2 (11742367_at) / RFU PRRT2 (11749266_a_at) / Fold change /veh PRRT2 (11749266_a_at) / RFU SNX32 (11753110_a_at) / Fold change /veh SNX32 (11753110_a_at) / RFU CDHR5 (11726645_a_at) / Fold change /veh CDHR5 (11726645_a_at) / RFU RCAN1 (11760418_a_at) / Fold change /veh RCAN1 (11760418_a_at) / RFU FAM167A (11723789_a_at) / Fold change /veh FAM167A (11723789_a_at) / RFU FAM26E (11764081_at) / Fold change /veh FAM26E (11764081_at) / RFU ISYNA1 (11749810_s_at) / Fold change /veh ISYNA1 (11749810_s_at) / RFU ACY1 (11761880_at) / Fold change /veh ACY1 (11761880_at) / RFU 11764098_at / Fold change /veh 11764098_at / RFU SAMD14 (11745864_x_at) / Fold change /veh SAMD14 (11745864_x_at) / RFU NPB (11741838_a_at) / Fold change /veh NPB (11741838_a_at) / RFU TMPRSS6 (11731388_a_at) / Fold change /veh TMPRSS6 (11731388_a_at) / RFU KRTAP10-2 (11738614_at) / Fold change /veh KRTAP10-2 (11738614_at) / RFU ARHGAP8 /// PRR5-ARHGAP8 (11727945_x_at) / Fold change /veh ARHGAP8 /// PRR5-ARHGAP8 (11727945_x_at) / RFU KRTAP5-7 /// NADSYN1 (11734609_at) / Fold change /veh KRTAP5-7 /// NADSYN1 (11734609_at) / RFU RASL12 (11751679_a_at) / Fold change /veh RASL12 (11751679_a_at) / RFU CDKN2B (11736163_a_at) / Fold change /veh CDKN2B (11736163_a_at) / RFU PRF1 (11729649_at) / Fold change /veh PRF1 (11729649_at) / RFU, ZNF638 /// ZNF638-IT1 / Fold change vs veh, ZNF638 /// ZNF638-IT1 / RFU, PANK3 / Fold change vs veh, PANK3 / RFU, SH3YL1 / Fold change vs veh, SH3YL1 / RFU, ZEB2 / Fold change vs veh, ZEB2 / RFU, NRIP1 / Fold change vs veh, NRIP1 / RFU, PTTG1IP / Fold change vs veh, PTTG1IP / RFU, CAPN2 / Fold change vs veh, CAPN2 / RFU, MED14 / Fold change vs veh, MED14 / RFU, SNORA58 / Fold change vs veh, SNORA58 / RFU, C1orf63 / Fold change vs veh, C1orf63 / RFU, LRRFIP1 / Fold change vs veh, LRRFIP1 / RFU, NDUFAF7 / Fold change vs veh, NDUFAF7 / RFU, SLC12A2 / Fold change vs veh, SLC12A2 / RFU, IBTK / Fold change vs veh, IBTK / RFU, ESF1 / Fold change vs veh, ESF1 / Fold change vs veh, TMEM50B / RFU, TAOK1 / Fold change vs veh, TAOK1 / RFU, ACBD3 / Fold change vs veh, ACBD3 / RFU, TMA16 / Fold change vs veh, TMA16 / RFU, RWDD3 / Fold change vs veh, RWDD3 / RFU, BCAT1 / Fold change vs veh, BCAT1 / RFU, EDEM3 / Fold change vs veh, EDEM3 / RFU, TMEM33 / Fold change vs veh, TMEM33 / RFU, WDR75 / Fold change vs veh, WDR75 / RFU, AHCTF1 / Fold change vs veh, AHCTF1 / RFU, TFRC / Fold change vs veh, TFRC / RFU, ZDHHC17 / Fold change vs veh, ZDHHC17 / RFU, NOM1 / Fold change vs veh, NOM1 / RFU, ARL8B / Fold change vs veh, ARL8B / RFU, ZBTB11 / Fold change vs veh, ZBTB11 / RFU, TAMM41 / Fold change vs veh, TAMM41 / RFU, KIAA1704 /// LOC100996395 / Fold change vs veh, KIAA1704 /// LOC100996395 / RFU, ING1 / Fold change vs veh, ING1 / RFU, TRMT61B / Fold change vs veh, TRMT61B / RFU, FUBP3 / Fold change vs veh, FUBP3 / RFU, TP53 / Fold change vs veh, TP53 / RFU, TNKS2 / Fold change vs veh, TNKS2 / RFU, ZFP14 / Fold change vs veh, ZFP14 / RFU, ACTR2 / Fold change vs veh, ACTR2 / RFU, PPP3R1 / Fold change vs veh, PPP3R1 / RFU, PIK3R1 / Fold change vs veh, PIK3R1 / RFU, HNRNPA1 / Fold change vs veh, HNRNPA1 / RFU, RNF170 / Fold change vs veh, RNF170 / RFU, ZNF28 / Fold change vs veh, ZNF28 / RFU, RNGTT / Fold change vs veh, RNGTT / RFU, OGT / Fold change vs veh, OGT / RFU, BRD1 / Fold change vs veh, BRD1 / RFU, MARS / Fold change vs veh, MARS / RFU, ZNF655 / Fold change vs veh, ZNF655 / RFU, FAHD1 / Fold change vs veh, FAHD1 / RFU, BDP1 / Fold change vs veh, BDP1 / RFU, LRRCC1 / Fold change vs veh, LRRCC1 / RFU, ARID1A / Fold change vs veh, ARID1A / RFU, ZNF146 / Fold change vs veh, ZNF146 / RFU, ZNF330 / Fold change vs veh, ZNF330 / RFU, GPN3 / Fold change vs veh, GPN3 / RFU, C9orf123 / Fold change vs veh, C9orf123 / RFU, N4BP2L2 / Fold change vs veh, N4BP2L2 / RFU, ARFIP1 / Fold change vs veh, ARFIP1 / RFU, FAM179B / Fold change vs veh, FAM179B / RFU, BCL10 / Fold change vs veh, BCL10 / RFU, UHRF1BP1L / Fold change vs veh, UHRF1BP1L / RFU, BET1 / Fold change vs veh, BET1 / RFU, CNOT2 / Fold change vs veh, CNOT2 / RFU, ZNF268 / Fold change vs veh, ZNF268 / Fold change vs veh, ZNF507 / RFU, DGCR2 / Fold change vs veh, DGCR2 / RFU, WDSUB1 / Fold change vs veh, WDSUB1 / Fold change vs veh, HSP90B1 /// MIR3652 / RFU, ADSS / Fold change vs veh, ADSS / RFU, GK / Fold change vs veh, GK / RFU, ZNF148 / Fold change vs veh, ZNF148 / RFU, TAF9 / Fold change vs veh, TAF9 / RFU, SLC1A5 / Fold change vs veh, SLC1A5 / RFU, SLMO2 / Fold change vs veh, SLMO2 / RFU, ABCC4 / Fold change vs veh, ABCC4 / RFU, LOC101060439 /// RAP1B / Fold change vs veh, LOC101060439 /// RAP1B / RFU, RFX7 / Fold change vs veh, RFX7 / RFU, GTPBP10 / Fold change vs veh, GTPBP10 / RFU, CNEP1R1 / Fold change vs veh, CNEP1R1 / RFU, BIVM-ERCC5 /// ERCC5 / Fold change vs veh, BIVM-ERCC5 /// ERCC5 / RFU, ILF3 / Fold change vs veh, ILF3 / RFU 11762660_at / Fold change /veh 11762660_at / RFU VCAN (11757783_s_at) / Fold change /veh VCAN (11757783_s_at) / RFU DDX43 (11728927_at) / Fold change /veh DDX43 (11728927_at) / RFU KRT8 (11758188_x_at) / Fold change /veh KRT8 (11758188_x_at) / RFU NKD1 (11759106_at) / Fold change /veh NKD1 (11759106_at) / RFU SRD5A1 (11742802_a_at) / Fold change /veh SRD5A1 (11742802_a_at) / RFU TPSAB1 /// TPSB2 (11721975_s_at) / Fold change /veh TPSAB1 /// TPSB2 (11721975_s_at) / RFU GSTM3 (11746129_a_at) / Fold change /veh GSTM3 (11746129_a_at) / RFU IL23R (11737362_x_at) / Fold change /veh IL23R (11737362_x_at) / RFU TMEM51 (11727254_a_at) / Fold change /veh TMEM51 (11727254_a_at) / RFU PIWIL2 (11732686_x_at) / Fold change /veh PIWIL2 (11732686_x_at) / RFU ORM1 (11744905_x_at) / Fold change /veh ORM1 (11744905_x_at) / RFU CCDC152 (11743942_at) / Fold change /veh CCDC152 (11743942_at) / RFU ECM1 (11717891_a_at) / Fold change /veh ECM1 (11717891_a_at) / RFU IL23R (11748794_a_at) / Fold change /veh IL23R (11748794_a_at) / RFU TNFAIP8L3 (11732012_x_at) / Fold change /veh TNFAIP8L3 (11732012_x_at) / RFU MBOAT4 (11741988_at) / Fold change /veh MBOAT4 (11741988_at) / RFU 11764193_at / Fold change /veh 11764193_at / RFU TMEM53 (11763286_at) / Fold change /veh TMEM53 (11763286_at) / RFU MAGEB2 (11727129_at) / Fold change /veh MAGEB2 (11727129_at) / RFU TMEM200A (11744735_a_at) / Fold change /veh TMEM200A (11744735_a_at) / RFU CCDC152 (11751479_a_at) / Fold change /veh CCDC152 (11751479_a_at) / RFU FAM211A (11726209_a_at) / Fold change /veh FAM211A (11726209_a_at) / RFU RGS16 (11746705_a_at) / Fold change /veh RGS16 (11746705_a_at) / RFU VCAN (11755009_s_at) / Fold change /veh VCAN (11755009_s_at) / RFU RHOB (11743442_s_at) / Fold change /veh RHOB (11743442_s_at) / RFU RGS16 (11720943_a_at) / Fold change /veh RGS16 (11720943_a_at) / RFU RGS16 (11720944_at) / Fold change /veh RGS16 (11720944_at) / RFU, VPS4B / Fold change vs veh, VPS4B / RFU, CREB1 / Fold change vs veh, CREB1 / RFU, DNAJC13 / Fold change vs veh, DNAJC13 / RFU, GNAQ / Fold change vs veh, GNAQ / RFU, CDK5R1 / Fold change vs veh, CDK5R1 / RFU, ZRANB3 / Fold change vs veh, ZRANB3 / RFU, CUL4A / Fold change vs veh, CUL4A / RFU, CCNY / Fold change vs veh, CCNY / RFU, UFL1 / Fold change vs veh, UFL1 / RFU, COG3 / Fold change vs veh, COG3 / RFU, DIAPH2 / Fold change vs veh, DIAPH2 / RFU, SKA2 / Fold change vs veh, SKA2 / RFU, AFF3 / Fold change vs veh, AFF3 / RFU, LMF1 / Fold change vs veh, LMF1 / RFU, IPO11 / Fold change vs veh, IPO11 / RFU, DFFB / Fold change vs veh, DFFB / RFU, FOXP1 / Fold change vs veh, FOXP1 / RFU, CARD8 / Fold change vs veh, CARD8 / RFU, STRN3 / Fold change vs veh, STRN3 / RFU, ADK / Fold change vs veh, ADK / RFU, RASSF2 / Fold change vs veh, RASSF2 / RFU, WIPF1 / Fold change vs veh, WIPF1 / RFU, LARP1B / Fold change vs veh, LARP1B / RFU, RASA1 / Fold change vs veh, RASA1 / RFU, RB1 / Fold change vs veh, RB1 / RFU, PPFIA1 / Fold change vs veh, PPFIA1 / RFU, MAT2A / Fold change vs veh, MAT2A / RFU, CCT5 / Fold change vs veh, CCT5 / RFU, WDR92 / Fold change vs veh, WDR92 / RFU, CUX1 / Fold change vs veh, CUX1 / RFU, TTC7A / Fold change vs veh, TTC7A / RFU, TMEM135 / Fold change vs veh, TMEM135 / RFU, DEPTOR / Fold change vs veh, DEPTOR / RFU, CPM / Fold change vs veh, CPM / RFU, DNAJB6 / Fold change vs veh, DNAJB6 / RFU, CACNA2D3 / Fold change vs veh, CACNA2D3 / RFU, DTX4 / Fold change vs veh, DTX4 / RFU, TFCP2 / Fold change vs veh, TFCP2 / RFU, GMCL1 /// GMCL1P1 / Fold change vs veh, GMCL1 /// GMCL1P1 / RFU, AEBP2 / Fold change vs veh, AEBP2 / RFU, SNHG1 /// SNORD22 /// SNORD25 /// SNORD26 /// SNORD27 /// SNORD28 /// SNORD29 /// SNORD31 / Fold change vs veh, SNHG1 /// SNORD22 /// SNORD25 /// SNORD26 /// SNORD27 /// SNORD28 /// SNORD29 /// SNORD31 / Fold change (Aza/veh), C12orf56 (ProbeSet 11735607_a_at) / Fold change (ACY-1035/veh), C12orf56 (ProbeSet 11735607_a_at) / Fold change (Aza/veh), FGFR1OP (ProbeSet 11751329_s_at) / Fold change (ACY-1035/veh), FGFR1OP (ProbeSet 11751329_s_at) / Fold change (Aza/veh), VPS36 (ProbeSet 11739960_a_at) / Fold change (ACY-1035/veh), VPS36 (ProbeSet 11739960_a_at) / RFU SYPL1 (11715823_x_at) / Fold change /veh SYPL1 (11715823_x_at) / RFU IGFBP7 (11715501_s_at) / Fold change /veh IGFBP7 (11715501_s_at) / RFU REEP3 (11722064_at) / Fold change /veh REEP3 (11722064_at) / RFU IGLL1 (11728026_x_at) / Fold change /veh IGLL1 (11728026_x_at): dose or concentration left out as unconfirmed
Conditions: MV-4-11 cells, 48 hours

Nc1ccc(-c2cccs2)cc1NC(=O)c1ccc2c(c1)cc(C1CC1)n2CCN1CCOCC1 [ACY-1035]
Fold change /veh RGS16 (11720943_a_at): 0.99
